The record followed here is patent US8765809B2, “Ester derivative and use thereof” (Ajinomoto Co., Inc., priority 2006, dated 2014).

The subject of this experiment is auricle of hairless mouse. The experiment in a line: Measurement of external blood circulation enhancing action: vasodilatory effect (red spots) after application to the ear. The class given is in vivo, hairless mouse (HR-1, female). The following applies: for Vasodilatory effect on hairless mouse (red spots) / red spots observed (note, words) / red spots almost disappeared at / weak red spots were observed at, time after application: 5 wt % (ethanol); for vasodilatory / blood circulation enhancing effect, summary in words: summary of Tables 2 to 4. Also on record: key to Vasodilatory effect for hairless mouse (red spots) / Vasodilatory effect on hairless mouse (red spots): O: clear red spots is confirmed; Δ: weak red spots is confirmed; x: no development of red spots. The source says: The compound of each Example, capsinoid derivative and capsaicin were compared for vasodilatory effect using auricle of hairless mouse. A sample was applied to the right ear of hairless mouse (HR-1, female), and a control was applied to the left ear. […]

The mark [1] stands for this setting: 5 wt % (liquid paraffin) as printed, second column of Table 2.
Setting [2] is: 5 wt % (liquid paraffin), first column of Table 2.
Setting [3] is: application of 5 wt % in liquid paraffin.

For `COc1cc(CNC(=O)CCCC/C=C/C(C)C)ccc1O` [capsaicin, reference compound], the “Vasodilatory effect on hairless mouse (red spots)” value was “∘” and the “red spots observed (note, words)” value is listed as “Strong red spots were observed”. Also, the “Vasodilatory effect for hairless mouse (red spots)” value (0.005 wt % (ethanol)) is given as “Δ”. Further, the “Vasodilatory effect for hairless mouse (red spots)” value (0.05 wt % (ethanol)) is given as “∘”. In addition, the “Vasodilatory effect for hairless mouse (red spots)” value (0.5 wt % (ethanol)) is “∘”. The “Vasodilatory effect for hairless mouse (red spots)” value under setting [1] is reported as “∘”. Besides, the “Vasodilatory effect for hairless mouse (red spots)” value under setting [2] is listed as “∘”. In addition, the “red spots were observed even after lapse of” value (application of 1 wt % in liquid paraffin) is “lapse of 2 hr”.
As to `COc1cc(COC(=O)CCCC/C=C/C(C)C)ccc1O` [capsiate, 4-hydroxy-3-methoxybenzyl (E)-8-methyl-6-nonenoate, reference compound], the “Vasodilatory effect on hairless mouse (red spots)” value was “∘” and the “red spots observed (note, words)” value is on record as “Clear red spots were observed”. Besides, the “Vasodilatory effect for hairless mouse (red spots)” value under setting [1] is recorded as “Δ”. Further, the “Vasodilatory effect for hairless mouse (red spots)” value under setting [2] is “∘”. Moreover, under setting [3], the “weak red spots were observed even after lapse of” value is “lapse of 90 min”.
In the case of `COc1cc(CCCOC(=O)CCCCCCC(C)C)ccc1O` [compound J, 3-(3-methoxy-4-hydroxyphenyl)propyl 8-methylnonanoate], the “Vasodilatory effect on hairless mouse (red spots)” value is given as “x”. The “Vasodilatory effect for hairless mouse (red spots)” value under setting [2] was “x”. Also, the “blood circulation enhancing effect (note, words)” value under setting [3] was “Application of 5 wt %: no blood”.
Consider `COc1cc(CCCOC(=O)CCCCCC(C)C)ccc1O` [compound J-1, 3-(3-methoxy-4-hydroxyphenyl)propyl 7-methyloctanoate], for which the “Vasodilatory effect on hairless mouse (red spots)” value was “∘”; the “red spots almost disappeared at” value is recorded as “almost disappeared at 30 min later”; the “weak red spots were observed at, time after application” value (shortened to “weak red spots were observed at, time”) is listed as “Weak red spots were observed at 10 min”; the “vasodilatory / blood circulation enhancing effect, summary in words” value was “weak blood circulation enhancing effect”. The “Vasodilatory effect for hairless mouse (red spots)” value under setting [1] was “x”. Also, under setting [2], the “Vasodilatory effect for hairless mouse (red spots)” value was “Δ”. The “red spots disappeared in” value under setting [3] is given as “spots disappeared in 1 hr”.
`COc1cc(CCCOC(=O)CCCCC(C)C)ccc1O` [compound J-2, 3-(3-methoxy-4-hydroxyphenyl)propyl 6-methylheptanoate]: the “Vasodilatory effect on hairless mouse (red spots)” value is reported as “∘”; the “red spots almost disappeared at” value is listed as “almost disappeared at 30 min later”; the “weak red spots were observed at, time” value is on record as “Weak red spots were observed at 10 min”; the “vasodilatory / blood circulation enhancing effect, summary in words” value is listed as “weak blood circulation enhancing effect”. Under setting [1], the “Vasodilatory effect for hairless mouse (red spots)” value is listed as “x”. In addition, the “Vasodilatory effect for hairless mouse (red spots)” value under setting [2] was “Δ”. Moreover, the “red spots disappeared in” value under setting [3] is “spots disappeared in 1 hr”.
Turning to `COc1cc(CCCOC(=O)CCCC(C)C)ccc1O` [compound J-3, 3-(3-methoxy-4-hydroxyphenyl)propyl 5-methylhexanoate], the “Vasodilatory effect on hairless mouse (red spots)” value is “∘”; the “red spots almost disappeared at” value is given as “almost disappeared at 30 min later”; the “weak red spots were observed at, time” value was “Weak red spots were observed at 10 min”; the “vasodilatory / blood circulation enhancing effect, summary in words” value was “weak blood circulation enhancing effect”. In addition, the “Vasodilatory effect for hairless mouse (red spots)” value under setting [1] is “x”. Besides, the “Vasodilatory effect for hairless mouse (red spots)” value under setting [2] is “Δ”. Moreover, the “red spots disappeared in” value under setting [3] is given as “spots disappeared in 1 hr”.
As to `COc1cc(CCCOC(=O)CCC(C)C)ccc1O` [compound J-4, 3-(3-methoxy-4-hydroxyphenyl)propyl 4-methylpentanoate], the “Vasodilatory effect on hairless mouse (red spots)” value is on record as “∘”; the “red spots almost disappeared at” value is recorded as “almost disappeared at 30 min later”; the “weak red spots were observed at, time” value is given as “Weak red spots were observed at 10 min”; the “vasodilatory / blood circulation enhancing effect, summary in words” value is given as “weak blood circulation enhancing effect”. For the same compound, the “Vasodilatory effect for hairless mouse (red spots)” value under setting [1] is reported as “x”. Also, the “Vasodilatory effect for hairless mouse (red spots)” value under setting [2] is given as “Δ”. For the same compound, the “red spots disappeared in” value under setting [3] is “spots disappeared in 1 hr”.
Consider `CCCCCC(=O)OCCCc1ccc(O)c(OC)c1` [compound J-5, 3-(3-methoxy-4-hydroxyphenyl)propyl n-hexanoate], for which the “Vasodilatory effect on hairless mouse (red spots)” value is on record as “Δ”; the “red spots almost disappeared at” value is on record as “almost disappeared at 30 min later”; the “weak red spots were observed at, time” value is on record as “Weak red spots were observed at 10 min”; the “vasodilatory / blood circulation enhancing effect, summary in words” value is “weak blood circulation enhancing effect”. Besides, the “Vasodilatory effect for hairless mouse (red spots)” value under setting [1] is listed as “x”. Further, under setting [2], the “Vasodilatory effect for hairless mouse (red spots)” value is reported as “Δ”. The “red spots disappeared in” value under setting [3] is listed as “spots disappeared in 1 hr”.
Turning to `COc1cc(CC(=O)OCCCCCCCC(C)C)ccc1O` [compound K, 8-methylnonyl homovanillate], the “vasodilatory / blood circulation enhancing effect, summary in words” value is on record as “potent vasodilatory effect”. Also, the “Vasodilatory effect for hairless mouse (red spots)” value under setting [2] is on record as “∘”. The “weak red spots were observed even after lapse of” value under setting [3] was “lapse of 2 hr”.
For the compound `COc1cc(CC(=O)OCCCCCCC(C)C)ccc1O` [compound K-1, 7-methyloctyl homovanillate], the “vasodilatory / blood circulation enhancing effect, summary in words” value is “potent vasodilatory effect”. Under “0.005 wt % (ethanol)”, the “Vasodilatory effect for hairless mouse (red spots)” value is “Δ”. Under “0.05 wt % (ethanol)”, the “Vasodilatory effect for hairless mouse (red spots)” value is reported as “∘”. For the setting “0.5 wt % (ethanol)”, the “Vasodilatory effect for hairless mouse (red spots)” value is recorded as “∘”. Further, the “Vasodilatory effect for hairless mouse (red spots)” value under setting [1] was “∘”. Moreover, the “Vasodilatory effect for hairless mouse (red spots)” value under setting [2] is “∘”. The “red spots were observed even after lapse of” value under setting [3] was “lapse of 90 min”.
For the compound `CC[C@H](C)CCCCCOC(=O)Cc1ccc(O)c(OC)c1` [compound K-2, (S)-(+)-6-methyloctyl homovanillate], the “vasodilatory / blood circulation enhancing effect, summary in words” value is “potent vasodilatory effect”. Also, the “Vasodilatory effect for hairless mouse (red spots)” value (0.005 wt % (ethanol)) is given as “Δ”. Moreover, the “Vasodilatory effect for hairless mouse (red spots)” value (0.05 wt % (ethanol)) is reported as “∘”. Moreover, where the note is “0.5 wt % (ethanol)”, the “Vasodilatory effect for hairless mouse (red spots)” value was “∘”. The “Vasodilatory effect for hairless mouse (red spots)” value under setting [1] is “∘”. In addition, under setting [2], the “Vasodilatory effect for hairless mouse (red spots)” value is on record as “∘”. Besides, under setting [3], the “red spots were observed even after lapse of” value is reported as “lapse of 90 min”.
Regarding `COc1cc(CC(=O)OCCCCCC(C)C)ccc1O` [compound K-3, 6-methylheptyl homovanillate], the “vasodilatory / blood circulation enhancing effect, summary in words” value is given as “potent vasodilatory effect”. In addition, the “Vasodilatory effect for hairless mouse (red spots)” value (0.005 wt % (ethanol)) is “Δ”. Further, for the setting “0.05 wt % (ethanol)”, the “Vasodilatory effect for hairless mouse (red spots)” value is reported as “∘”. The “Vasodilatory effect for hairless mouse (red spots)” value (0.5 wt % (ethanol)) is reported as “∘”. Besides, the “Vasodilatory effect for hairless mouse (red spots)” value under setting [1] is “∘”. Also, the “Vasodilatory effect for hairless mouse (red spots)” value under setting [2] is reported as “∘”. Further, under setting [3], the “red spots were observed even after lapse of” value is listed as “lapse of 90 min”.
As to `COc1cc(CCC(=O)OCCCCCCCC(C)C)ccc1O` [compound L, 8-methylnonyl 3-(4-hydroxy-3-methoxyphenyl)propionate], the “vasodilatory / blood circulation enhancing effect, summary in words” value is recorded as “potent vasodilatory effect”. Moreover, the “Vasodilatory effect for hairless mouse (red spots)” value under setting [2] is reported as “∘”. Besides, the “red spots were observed even after lapse of” value under setting [3] is reported as “lapse of 90 min”.
